Assay results from patent US20240050449A1, “Use of Acetyltanshinone IIA in Preparation of Medicament for Treating Lung Cancer and Medicament for Treating Lung Cancer” (UNIVERSITY OF MACAU, priority 2022, published 2024).
Entries after “also recorded” stand apart in the source; their conditions may differ.

What was measured:
H1650 cells [1] = test: Spheroid formation experiment, H1650 cells
H358 cells [2] = test: Colony formation (cloning experiment), H358 cells; type: cell-based; details: 10 days
Method: (§1) Cells were seeded at a density of 1×10^3 per well in 6-well plates and cultured for 24 h. The cells were treated with medicament or DMSO for 10 days, after which the cells were washed once with 1×PBS, fixed with 4% paraformaldehyde for 20 min, and stained with 0.1% crystal violet for 15 min. The stained cells in each well were imaged and the number of colonies in each well was quantified using ImageJ software.

[3] = system: all four drug-resistant cell lines (A549, H358, H1975, H1650); test: Colony formation, all four drug-resistant cell lines; type: cell-based; details: 1 μM, 10 days
Method: as §1

[4] = system: protein levels in A549-derived xenograft tumor tissue; test: Western blot of A549-derived xenograft tumor tissue; type: in vivo, nude mice; details: after ATA treatment, 25 mg/kg
Method: Cells were washed once with PBS and frozen in RIPA lysis buffer containing protease and phosphatase inhibitors (Sigma-Aldrich) for 30 min. After sonication and centrifugation, the total protein concentration was determined by protein assay using Bio-Rad concentrated dye reagent (Bio-Rad). Equal amounts of protein (25-50 mg) from each sample were separated by SDS-PAGE and electrotransferred to nitrocellulose membranes (GE Healthcare). Detection was performed on the membrane with a 1:1000 dilution of specific primary antibody followed by incubation with a 1:2000 dilution of the HRP conjugated secondary antibody. Finally, immunoreactivity is detected with a chemiluminescent substrate (Clarity Western ECL substrate; Bio-Rad). EGFR (#4267S), MET (#8198S), p-Akt (#9271L), akt (#9272S), p-mTOR (#5536S), mTOR (#2983S), p-p70S6K (#9234S), p70S6K (#2708S), p-S6RP (#4857S), S6RP (#2217S), p-4E-BP1 (#9455S) antibodies. 4E-BP1 (#9644S), p53 (#2527S), p21 waf1/Cip1 (#2947S), survivin (#2808S), cyclin B1 (#12231S), cyclin D3 (#2936S) and GAPDH (#2118S) were purchased from Cell Signaling Technology. Aurora A (#ab13824) and PLK1 (#ab189139) antibodies were from Abcam.
EGFR, MET, p-p70S6K, p70S6K, p-S6RP, S6RP, p21, AURKA, PLK1, and survivin protein levels were detected by Western blot analysis. Immunoblot samples were from two independent tumors per group.

[5] = system: A549 cell-derived xenograft tumors; test: Mouse xenograft study; type: in vivo, nude mice; details: 25 mg/kg intraperitoneally every 3 days, day 31
Method: (§2) Cell line xenograft experiments were performed in 6-week-old female nude mice, 4×10^6 A549 cells were mixed 1:1 with matrigel-basement membrane matrix (Corning) and injected subcutaneously into nude mice. Tumors were allowed to grow to around […] and mice were randomly selected to receive treatment with ATA (25 mg/kg) or Erlotinib (25 mg/kg) intraperitoneally every 3 days for 31 days. ATA was formulated with 25% ethanol, 60% PEG300 (Sigma-Aldrich), and 15% Tween 80 (Sigma-Aldrich). Erlotinib was formulated in 5% DMSO, 30% PEG300, 5% Tween 80 and 60% H2O. Mouse body weight and tumor volume were measured every 3 days by a scale and caliper. Tumor volume (mm^3) was calculated using the formula. π/6×length (mm)×[width (mm)]^2. At least 6 mice in the control and treatment groups were evaluated during the study. All mice were sacrificed after 31 days of drug treatment, tumors were collected, and tumor weights were recorded. All animal studies were conducted in accordance with the requirements of the Animal Research Ethics Committee of Macao University and in compliance with all relevant ethical requirements.
(§3) To determine if ATA could also produce the same effect in vivo, this example injected A549 cells subcutaneously into nude mice to form tumor xenografts. Mice were randomly assigned to three groups. When the size of each tumor increased to a volume of approximately 100 mm^3, mice were injected intraperitoneally with vehicle control, ATA (25 mg/kg), or Erlotinib (25 mg/kg) every 3 days for 31 days. The tumor size and body weight of each mouse were measured every 3 days until the end of the animal experiment on day 31.

A549 cells = test: MTT cell viability assay, A549 cells; type: cell-based
Method: (§4) Cells were seeded at a density of 3×10^3 per well in 96-well plates, allowed to attach overnight, and treated with various concentrations of agent. After 72 h of treatment, 10 μL of MTT solution (5 mg/mL) was added to each well and cultured in the plate for 4 h. The crystallized formazan was dissolved in 100 μL of 10% (w/v) SDS and 0.01 mol/L HCl solution for 24 h, and then the value was read by spectrophotometry at 595 nm using a microplate reader.

H358 cells [6] = test: MTT cell viability assay, H358 cells; type: cell-based
Method: as §4

H1650 cells [7] = test: Colony formation (cloning experiment), H1650 cells; type: cell-based; details: 10 days
Method: as §1

A549 and H1650 cells = test: Cell cycle analysis (PI staining, flow cytometer); type: cell-based; details: 1 or 2 μM, 48 h
Method: Cell cycle analysis was performed using standard flow cytometer protocols. Briefly, after ATA treatment, cells were harvested, washed with 1×PBS, and then fixed with 70% pre-chilled ethanol at 4° C. for 30 min. Fixed cells were washed twice with 1×PBS, resuspended in 0.5 mL of 1×PBS containing 50 μg/mL propidium iodide (PI) and 100 μg/mL RNase A (ribonuclease A) for 30 min at 37° C. in the dark. The cell cycle was then analyzed on a BD Accuri C6 flow cytometer (BD Biosciences, CA). Data from the flow cytometer were analyzed using FlowJo software (Tree Star).

[8] = Body weight, deaths and toxicity in the xenograft study; details: 25 mg/kg intraperitoneally every 3 days for 31 days
Method: as §2, §3

[9] = system: drug-resistant NSCLC cells (A549, H358, H1975, H1650); test: MTT assay, summary over all four cell lines; type: cell-based
Method: as §4

With CC(=O)Oc1c(OC(C)=O)c2c(C)coc2c2ccc3c(c12)CCCC3(C)C [ATA, acetyltanshinone IIA] the “spheroid growth / sphere size” value (H1650 cells [1]; 2 μM, 0 to 8 days) was “completely inhibited”, the spheroid formation (H1650 cells [1]; both 1 and 2 μM) was “strongly inhibited” and the “inhibition of colony formation” value (H358 cells [2]; 0.125 μM) was “almost completely inhibited”. For the same molecule, the “colony formation inhibition compared with Afatinib” value (H358 cells [2]; 1 μM) was “significantly higher colony formation inhibition than Afatinib”, the “inhibition of colony formation compared with Erlotinib and Osimertinib” value [3] was “much more effectively than Erlotinib and Osimertinib” and the “increase of p21 protein levels in xenograft tumor tissue” value [4] was “more than 2 fold”. The “protein levels of EGFR, MET, p-p70S6K, p70S6K, p-S6RP, AURKA, PLK1 and survivin in xenograft tumor tissue” value [4] was “greatly reduced”, the “reduction of tumor size compared to the control group” value [5] was 72.1% and the “reduction of tumor weight” value [5] was 77.4%. For the same molecule, the “IC50 ratio of Erlotinib/ATA” value (A549 cells) was 10.7, the “growth inhibition compared with other agents” value (A549 cells; ATA 2 μM, 72 h, MTT) was “significantly higher than all three inhibitors; also recorded: greater growth inhibition than combination therapy with Erlotinib and MLN8237” and the IC50 (A549 cells; MTT, 72 h) was 1830 ± 210 nM. For the same molecule, the “IC50 ratio of Erlotinib/ATA” value (H358 cells [6]) was 13.7, the IC50 (H358 cells [6]; MTT, 72 h) was 1570 ± 100 nM and the “reduction of colony-forming capacity” value (H1650 cells [7]; 0.125 μM) was 73%. For the same molecule, the “colony formation inhibition compared with Afatinib” value (H1650 cells [7]; 1 μM) was “significantly higher colony formation inhibition than Afatinib”, the “proportion of cells in the G1 phase” value (A549 and H1650 cells) was “increased” and the “proportion of cells in the S phase” value (A549 and H1650 cells) was “decreased”. The “deaths during the treatment period” value [8] was “no mice died”, the “toxicity in nude mice” value [8] was “no significant toxicity” and the “weight of nude mice compared between groups” value [8] was “no difference”. The IC50 ([9]; A549, H358, H1975, H1650, MTT, 72 h, read-out: IC50 values, range over the four cell lines) was 1300 to 1800 nM and the “IC50 of ATA lower than that of Erlotinib” value ([9]; four cell lines) was 6-17 fold.
